Data taken from the METLIN SMRT retention time set (Domingo-Almenara et al. 2019).

Assay: gradient 5% acetonitrile 3 min, to 50% in 2 min, to 85% in 15 min, held 3 min, 100 µL/min
Conditions: column: Zorbax Extend-C18 2.1 x 50 mm; eluents: water / acetonitrile, 0.1% formic acid
How it was run: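 In both positive and negative ionization mode, a quadrupole time-of-flight mass spectrometer coupled to HPLC analyzed pure standards run in mixtures of ~100 molecules. The Zorbax Extend-C18 column (2.1 × 50 mm, 1.8 μm) was operated at 100 μL/min with water and acetonitrile, each containing 0.1% formic acid. The dead volume was 40 μL and the dwell volume 900 μL. Retention time came from adduct peaks that were computationally picked and individually inspected by hand.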

Structure (SMILES)	RP-LC retention time [s]
CCOC(=O)c1cc2c([nH]c1=O)CC(c1cccc(C)c1)CC2=O (stereo unspecified)	653
CCc1nnc2sc(-c3cc(C)nc4ccc(Br)cc34)nn12	892
Cc1cc2n(n1)CCCN2C(=O)CCC(=O)N1CCC(Cc2ccccc2)CC1	818
CCc1cccc(C)c1Nc1c(-c2ccc(C)cc2)nc2cnccn12	996
C[C@H]1CN(C(=O)NCc2ccccc2)C[C@@H]1c1nc(-c2ccncc2)no1	715
Cc1noc(-c2ccnc(SCC(=O)Nc3cccc(C(F)(F)F)c3)c2)n1	933
Cc1ccc(NC(=O)C2CCN(S(C)(=O)=O)c3cc(Cl)ccc3O2)cc1C (stereo unspecified)	1090
Cc1ccc(N2CCN(c3nc(C(=O)O)cs3)CC2)cc1	770
CCN1c2ccc(F)cc2C(=O)NC12CCN(C(=O)Cc1ccc(OC)cc1)CC2	784
COc1ccc(-c2cc(N3CCN(C(=O)Cc4ccc(Br)cc4)CC3)n[nH]2)cc1	842
CCC1Oc2ccc(S(=O)(=O)N3CCC(C(=O)N(CC)Cc4ccccc4)CC3)cc2NC1=O (stereo unspecified)	924
CC1=C(C(=O)N2CCOCC2)C(c2ccc(Br)cc2)C2=C(CCCC2=O)N1 (stereo unspecified)	670
Cc1nnc(-c2cc(S(=O)(=O)NC3CCCCCCC3)c(C)n2C)o1	897
CC1CCN(C(=O)CS(=O)Cc2cnn(-c3ccccc3)c2-n2cccc2)CC1 (stereo unspecified)	828
Cc1ccsc1C(=O)Nc1ccc(N2CCN(c3ccccc3)C2=O)nc1	893
O=C(CSc1ccc(F)cc1)N1CCC(COCc2ccccc2)CC1	1030
O=C(c1cnc2ccccc2n1)N1CC(c2nc(-c3cccc(C(F)(F)F)c3)no2)C1	1030
Cc1cc2n(n1)CCCN2C(=O)CCC(=O)NCc1ccc(N(C)C)cc1	609

Structure (SMILES)	RP-LC retention time [s]
CCC1Oc2ccc(S(=O)(=O)N3CCC(C(=O)N4CCN(CC)CC4)CC3)cc2NC1=O (stereo unspecified)	573
Cc1cccc(N2CCN(C(=O)C3=CCN(Cc4ccccc4)CC3)CC2)c1	681
CCC(=O)N1CCN(c2nc(C)cc(N3CCOCC3)n2)CC1	578
Cc1ccc2ncn(C3CCN(S(=O)(=O)c4cc(F)cc(F)c4)CC3)c(=O)c2c1	932
COc1ccc2c(c1)-c1nc(NC(=O)c3ccc(OC)c(Br)c3)sc1CC2	1220
COc1ccc(-c2noc(C3CCCN3C(=O)NC3CCCCC3)n2)cc1 (stereo unspecified)	948
Cn1nnnc1SCC(=O)N1CCC(C(=O)NCC(F)(F)F)CC1	600
COc1ccc(NC(=O)Cn2cccc(-c3nc(-c4ccc(OC)c(OC)c4)no3)c2=O)cc1Cl	814
COc1ccccc1OCCC1CCN(S(=O)(=O)Cc2ccccc2)C1 (stereo unspecified)	692
O=C(NC1CCCN(c2cc(-c3ccccc3)[nH]n2)C1)c1ccc2c(c1)OCO2 (stereo unspecified)	760
CCN1C(=O)c2cccnc2Sc2cc(CNC(=O)c3cc(OC)cc(OC)c3)ccc21	777
CCn1nccc1-c1cccc(-c2noc(-c3ccnc(Cl)c3)n2)c1	1160
CN(CC1COCCO1)c1ccc(C(=O)O)cc1NC(=O)c1ccc(Cl)cc1 (stereo unspecified)	812
CCCNc1cc(N2CCC(CCC(=O)Nc3ccc(OCC)cc3)CC2)ncn1	736
O=C(NCC1CCCO1)C1CCN(S(=O)(=O)c2cc(-c3noc(C4CCC4)n3)cs2)CC1 (stereo unspecified)	858
CCCC(NC(=O)c1ccc(F)cc1)C(=O)Nc1nc2ccccc2[nH]1 (stereo unspecified)	690
Cc1ccc(NC(=O)Cn2nc3c(Oc4cccc(F)c4)nccn3c2=O)cc1F	894

Further lines, results first:

RP-LC retention time [s]	Structure (SMILES)
1050	Cn1c(=O)n(CC(=O)N2CCCCC2)c(=O)c2cnc(-c3ccc(Cl)cc3)nc21
702	CNC(=O)[C@@H]1C[C@H](Oc2ccccc2)CN1S(=O)(=O)N(C)C
807	Cn1c(=O)c2c(nc(Oc3ccccc3)n2C)n(C)c1=O
723	CCCNC(=O)CC1Sc2ncccc2N(CC(C)C)C1=O (stereo unspecified)
956	O=C(NCC1OCCc2ccccc21)C(=O)Nc1ccccc1 (stereo unspecified)
705	CC(C)Oc1ccc(CN2CCC(C)(c3noc(C4CCOCC4)n3)CC2)cc1
1150	CCc1ccc(NC(=O)N2CCc3nc(-c4ccc(Cl)cc4)ncc3C2)cc1
680	Cc1ccc(CSc2nc(CC(=O)N3CCC(C(N)=O)CC3)cs2)cc1
679	Cc1ccc(CNC(=O)C2CCN(S(=O)(=O)c3c(C)[nH]c(C)c3C(=O)N3CCCC3)CC2)o1
971	COc1cc(OC)cc(C(=O)N2CCN(c3nc4ccccc4cc3-c3noc(C)n3)CC2)c1
730	COC(=O)CS(=O)c1ccc(C(F)(F)F)cc1[N+](=O)[O-] (stereo unspecified)
754	CC(=O)Nc1ccc(NC(=O)C2CCN(S(=O)(=O)c3c(C)nn(-c4ccccc4)c3C)CC2)cc1
863	O=C(NCc1ccc(F)cc1Cl)C1CCN(c2cc(Oc3ccccc3)ncn2)CC1
920	Cc1cc(C)n(-c2ccnc(N3CCC(C(=O)N4CCC(C)CC4)CC3)n2)n1
685	CCOc1ccccc1C(=O)Nc1c(-c2ccccc2)nc2ccccn12
788	COc1ccc(-c2cc3n(n2)CCCN(C(=O)c2cccnc2SC)C3)cc1

RP-LC retention time [s]	Structure (SMILES)
917	Cc1ccc(N2C(=O)CN(S(=O)(=O)c3ccccc3)CC2(C)C(=O)NC2CCCC2)cc1 (stereo unspecified)
958	c1ccc(-c2noc(-c3nc(-c4ccccn4)no3)n2)cc1
714	Cc1cc(C(=O)N2CCN(c3ccccc3F)CC2)n[nH]1
998	CCc1ccc(S(=O)(=O)N2CCN(Cc3nc4cc(C(C)(C)C)ccc4o3)CC2)cc1
950	O=S(=O)(Cc1ccccc1Cl)N(CCc1ccccc1)Cc1ccccn1
638	CCc1nncn1C1CCN(C(=O)Nc2ccc(Cl)cc2F)C1 (stereo unspecified)
683	CC1CCCN(C(=O)C2CCN(c3cc(N4CCCCC4)ncn3)CC2)C1 (stereo unspecified)
561	COCc1nnc2n1CCC(NC(=O)c1ccoc1)CC2 (stereo unspecified)
1100	Cc1cc(C)n(-c2ccc(C(=O)NCc3ccc(C(C)C)cc3)cn2)n1
865	COc1ccc(CNC(=O)c2c(C)sc3ccn(CC(C)C)c(=O)c23)cc1OC
848	Cc1cccc(NC(=O)CN2C(=O)CCc3cc(S(=O)(=O)N4CCCCC4C)ccc32)c1 (stereo unspecified)
593	CCc1ccc(N2C(=O)CC(N3CCC(C(N)=O)CC3)C2=O)cc1 (stereo unspecified)
649	CCc1nc2c(c(=O)n1CC(=O)NCc1ccccc1F)CN(Cc1ccccc1)CC2
876	Cc1cnn(Cc2nc(-c3ccc(NC(=O)c4ccsc4)cc3)oc2C)c1
733	Cc1nc(-c2cnccn2)nc2c1CCC(=O)N2Cc1cccc(F)c1
